Among the data in patent publication US12180226B2, “Spirotricycle RIPK1 inhibitors and methods of uses thereof” (Merck Sharp & Dohme LLC, priority 2021, dated 2024) are EC50 values, retold here.

For the experiment, the target named is RIPK1 (recombinant GST-RIPK1 kinase domain, residues 1-327) (Homo sapiens (Human), UniProt Q13546). The experiment can be described thus: RIPK1-ADP-Glo Enzymatic Assay. The class given is biochemical. As to conditions: ADP-Glo; 25 nM GST-RIPK1, 300 μM ATP; assay lower limit ~25 nM; read-out: RIPK1 V0 Ec50. A digest of the protocol: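 Using dephosphorylated MBP (3 μM) as substrate and 300 μM ATP, 25 nM baculovirus-produced enzyme was reacted for 150 min after a 30-min compound pre-incubation. Luminescent ADP detection followed; lower confidence limit ~25 nM.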
Chain of RIPK1 (recombinant GST-RIPK1 kinase domain, residues 1-327) (Q13546 1-327): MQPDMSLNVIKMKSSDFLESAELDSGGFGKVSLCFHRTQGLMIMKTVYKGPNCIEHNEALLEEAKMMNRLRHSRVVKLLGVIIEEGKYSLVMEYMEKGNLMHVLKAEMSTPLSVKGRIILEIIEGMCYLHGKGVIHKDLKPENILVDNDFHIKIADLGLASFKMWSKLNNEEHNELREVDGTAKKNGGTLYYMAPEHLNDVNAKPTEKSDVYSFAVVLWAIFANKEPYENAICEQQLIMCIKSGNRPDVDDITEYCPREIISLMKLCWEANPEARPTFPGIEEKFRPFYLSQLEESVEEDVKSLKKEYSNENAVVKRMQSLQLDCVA
(In general: In ADP-Glo the light output rises with the ADP produced.)

As to `O=C(c1ccoc1)N1CCC2(CC1)O[C@@H]1CC[C@@H](c3cc(F)cc(F)c3)N1C2=O` [Example 5.36, (5′S,7a′R)-5′-(3,5-difluoro-phenyl)-1-(furan-3-carbon-yl)tetrahydro-3′H-spiro [piperidine-4,2′-pyrrolo-[2,1-b]oxazol]-3′-one], the concentration giving a half-maximal response (EC50) is less than 25 nM.
The same measure for `N#Cc1ccc(N2CCC3(CC2)O[C@@H]2CC[C@@H](c4ccccc4)N2C3=O)n2ncc(Cl)c12` [Example 4.182, 3-chloro-7-[(5′S,7a′R)-3′-oxo-5′-phenyltetrahydro-1H,3′H-spiro[piperidine-4,2′-pyrrolo[2,1-b] [1,3]oxazol]-1-yl]pyrazolo[1,5-a] pyridine-4-carbonitrile]: less than 25 nM.
The same measure for `O=C(c1ncccc1Cl)N1CCC2(CC1)O[C@@H]1CC[C@@H](c3cc(F)cc(F)c3)N1C2=O` [Example 6.53, (5′S,7a′R)-1-(3-chloropyridine-2-carbonyl)-5′-(3,5-difluorophenyl)tetra-hydro-3′H-spiro [piperidine-4,2′-pyrrolo[2,1-b][1,3]-oxazol]-3′-one]: 147 nM; for `O=C1N2[C@@H](CC[C@H]2c2ccccc2)OC12CCN(c1ccnc(-c3ccccc3)n1)CC2` [Example 11.14, (5′S,7a′R)-5′-phenyl-1-(2-phenylpyrimidin-4-yl)tetrahydro-3′H-spiro[piperidine-4,2′-pyrrolo[2,1-b][1,3]oxazol]-3′-one]: 33.7 nM.
On to `O=C1N2[C@@H](CC[C@H]2c2ccccc2)OC12CCN(c1ccc(-c3ncco3)c3ncnn13)CC2` [Example 4.180, (5′S,7a′R)-1-[8-(1,3-oxazol-2-yl)[1,2,4]triazolo[1,5-a]pyridin-5-yl]-5′-phenyltetrahydro-3′H-spiro[piperidine-4,2′-pyrrolo[2,1-b] [1,3]oxazol]-3′-one], for which the EC50 is less than 25 nM.
The same measure for `Cc1cc(C)cc(C(=O)N2CCC3(CC2)O[C@@H]2CC[C@@H](c4ccccc4)N2C3=O)c1` [Example 6.150, (5′S,7a′R)-1-(3,5-dimethylbenzene-1-carbonyl)-5′-phenyl-tetrahydro-3′H-spiro [piperidine-4,2′-pyrrolo[2,1-b][1,3]oxazol]-3′-one]: 118 nM; for `O=C1N2[C@@H](CC[C@H]2c2cc(F)cc(F)c2)OC12CCN(c1ccc(-c3ncco3)c3ncnn13)CC2` [Example 21.1, (5′S,7a′R)-5′-(3,5-Difluorophenyl)-1-(8-(oxazol-2-yl)-[1,2,4]triazolo[1,5-a]pyridin-5-yl)tetrahydro-3′H-spiro[piperidine-4,2′-pyrrolo[2,1-b]oxazol]-3′-one]: less than 25 nM; for `O=C1N2[C@@H](CC[C@H]2c2ccccc2)OC12CCN(c1ncc(C3CC3)cn1)CC2` [Example 11.13, (5′S,7a′R)-1-(5-cyclopropylpyrimidin-2-yl)-5′-phenyltetrahydro-3′H-spiro[piperidine-4,2′-pyrrolo[2,1-b][1,3]oxazol]-3′-one]: 266 nM.
For `O=C(c1cnc(C(F)(F)F)cn1)N1CCC2(CC1)O[C@@H]1CC[C@@H](c3cc(F)cc(F)c3)N1C2=O` [Example 6.1, (5′S,7a′R)-5′-(3,5-Difluorophenyl)-1-(5-(trifluoromethyl)pyrazine-2-carbonyl)tetrahydro-3′H-spiro[piperidine-4,2′-pyrrolo[2,1-b]oxazol]-3′-one], the EC50 was determined as 388 nM.
Regarding `COc1cccc(C(=O)N2CCC3(CC2)O[C@@H]2CC[C@@H](c4cc(F)cc(F)c4)N2C3=O)n1` [Example 6.12, (5′S,7a′R)-5′-(3,5-difluorophenyl)-1-(6-methoxypyridine-2-carbonyl)tetrahydro-3′H-spiro[piperidine-4,2′-pyrrolo[2,1-b] [1,3]oxazol]-3′-one], the EC50 was found to be 25.1 nM.
With `N#Cc1ccc(N2CCC3(CC2)O[C@@H]2CC[C@@H](c4ccccc4)N2C3=O)n2ncc(-c3ncco3)c12` [Example 4.181, 3-(1,3-oxazol-2-yl)-7-[(5′S,7a′R)-3′-oxo-5′-phenyltetrahydro-1H,3′H-spiro[piperidine-4,2′-pyrrolo[2,1-b] [1,3]oxazol]-1-yl]pyrazolo[1,5-a] pyridine-4-carbonitrile], the half-maximal effective concentration (EC50) was found to be 110 nM.
The value for `N#CN1CCC2(CC1)O[C@@H]1CC[C@@H](c3cc(F)cc(F)c3)N1C2=O` [Example 4.48, (5′S,7a′R)-5′-(3,5-difluorophenyl)-3′-oxotetrahydro-1H,3′H-spiro[piperidine-4,2′-pyrrolo[2,1-b] [1,3]oxazole]-1-carbonitrile] was 150 nM; that for `CCOc1ncccc1C(=O)N1CCC2(CC1)O[C@@H]1CC[C@@H](c3cc(F)cc(F)c3)N1C2=O` [Example 6.38, (5′S,7a′R)-5′-(3,5-difluorophenyl)-1-(2-ethoxypyridine-3-carbonyl)tetrahydro-3′H-spiro[piperidine-4,2′-pyrrolo[2,1-b] [1,3]oxazol]-3′-one] was 867 nM; that for `O=C(c1ccccc1)N1CCC2(CC1)O[C@@H]1CC[C@@H](c3cccc(F)c3)N1C2=O` [Example 1.5, (5′S,7a′R)-1-(benzenecarbonyl)-5′-(3-fluorophenyl)tetrahydro-3′H-spiro[piperidine-4,2′-pyrrolo[2,1-b] [1,3]oxazol]-3′-one] was less than 25 nM.
Regarding `N#Cc1cc(C(=O)N2CCC3(CC2)O[C@@H]2CC[C@@H](c4cccc(F)c4)N2C3=O)ccc1F` [Example 6.113, 2-fluoro-5-[(5′S,7a′R)-5′-(3-fluorophenyl)-3′-oxotetrahydro-1H,3′H-spiro[piperidine-4,2′-pyrrolo[2,1-b][1,3]-oxazole]-1-carbonyl] benzonitrile], the EC50 was less than 25 nM.
With `O=C1N2[C@@H](CC[C@H]2c2cnccn2)OC12CCN(c1ccnc3c(F)cnn13)CC2` [Example 4.140, (5′S,7a′R)-1-(3-fluoropyrazolo[1,5-a]pyrimidin-7-yl)-5′-(pyrazin-2-yl)tetrahydro-3′H-spiro[piperidine-4,2′-pyrrolo[2,1-b] [1,3]oxazol]-3′-one], the EC50 was determined as 25.6 nM.
The value for `Cc1ccnc(C(=O)N2CCC3(CC2)O[C@@H]2CC[C@@H](c4cc(F)cc(F)c4)N2C3=O)c1` [Example 6.102, (5′S,7a′R)-5′-(3,5-difluorophenyl)-1-(4-methylpyridine-2-carbonyl)tetrahydro-3′H-spiro[piperidine-4,2′-pyrrolo[2,1-b] [1,3]oxazol]-3′-one] was 48.6 nM; that for `O=C(c1ccccc1)N1CCC2(CC1)O[C@@H]1[C@@H](F)C[C@@H](c3ccccc3)N1C2=O` [Example 6.108, (5′S,7′S,7a′R)-1-(benzenecarbonyl)-7′-fluoro-5′-phenyl-tetrahydro-3′H-spiro [piperidine-4,2′-pyrrolo[2,1-b][1,3]-oxazol]-3′-one] was 43.8 nM.
For the compound `CC(C)(C)NC(=O)c1nc(N2CCC3(CC2)O[C@@H]2CC[C@@H](c4cc(F)cc(F)c4)N2C3=O)ncc1F` [Example 7.15, N-tert-butyl-2-[(5′S,7a′R)-5′-(3,5-difluorophenyl)-3′-oxotetrahydro-1H,3′H-spiro[piperidine-4,2′-pyrrolo[2,1-b][1,3]oxazol]-1-yl]-5-fluoropyrimidine-4-carboxamide], the concentration giving a half-maximal response (EC50) turned out to be 171 nM.
Consider `N#Cc1ccc(F)c(C(=O)N2CCC3(CC2)O[C@@H]2CC[C@@H](c4cc(F)cc(F)c4)N2C3=O)c1` [Example 5.16, 3-((5′S,7a′R)-5′-(3,5-difluorophenyl)-3′-oxo-tetrahydro-3′H-spiro [piperidine-4,2′-pyrrolo-[2,1-b]oxazole]-1-carbon-yl)-4-fluorobenzonitrile], for which the EC50 was less than 25 nM.
Take `C#Cc1cc(C(=O)N2CCC3(CC2)O[C@@H]2CC[C@@H](c4cc(F)cc(F)c4)N2C3=O)ccn1` [Example 5.42, (5′S,7a′R)-5′-(3,5-difluoro-phenyl)-1-(2-ethynylpyri-dine-4-carbonyl)tetra-hydro-3′H-spiro[piperi-dine-4,2′-pyrrolo-[2,1-b] [1,3]oxazol]-3′-one]: the EC50 is 39.2 nM.
Regarding `CC1CN(C(=O)c2ccccc2)CCC12O[C@@H]1CC[C@@H](c3cc(F)cc(F)c3)N1C2=O` (stereo partly drawn) [Example 6.109, (5′S,7a′R)-1-(benzene-carbonyl)-5′-(3,5-difluorophenyl)-3-methyltetrahydro-3′H-spiro[piperidine-4,2′-pyrrolo[2,1-b][1,3]-oxazol]-3′-one], the EC50 is less than 25 nM.
The same measure for `CC1CC2(CCN1c1ccnc3ccnn13)O[C@@H]1CC[C@@H](c3ccccc3)N1C2=O` (stereo partly drawn) [Example 4.231, (4R,5′S,7a′R)-2-methyl-5′-phenyl-1-(pyrazolo[1,5-a]pyrimidin-7-yl)tetrahydro-3′H-spiro[piperidine-4,2′-pyrrolo[2,1-b] [1,3]oxazol]-3′-one]: less than 25 nM; for `COc1cccnc1C(=O)N1CCC2(CC1)O[C@@H]1CC[C@@H](c3cc(F)cc(F)c3)N1C2=O` [Example 6.81, (5′S,7a′R)-5′-(3,5-difluorophenyl)-1-(3-methoxypyridine-2-carbonyl)tetrahydro-3′H-spiro[piperidine-4,2′-pyrrolo[2,1-b] [1,3]oxazol]-3′-one]: 935 nM.
The value for `O=C(c1ccc2c(c1)CCO2)N1CCC2(CC1)O[C@@H]1CC[C@@H](c3cc(F)cc(F)c3)N1C2=O` [Example 6.75, (5′S,7a′R)-5′-(3,5-difluorophenyl)-1-(2,3-dihydro-1-benzo-furan-5-carbonyl)-tetrahydro-3′H-spiro [piperidine-4,2′-pyrrolo[2,1-b][1,3]-oxazol]-3′-one] was 24.7 nM; that for `O=C(c1cccc(-c2ccccc2)n1)N1CCC2(CC1)O[C@@H]1CC[C@@H](c3cc(F)cc(F)c3)N1C2=O` [Example 6.97, (5′S,7a′R)-5′-(3,5-difluorophenyl)-1-(6-phenylpyridine-2-carbonyl)tetrahydro-3′H-spiro[piperidine-4,2′-pyrrolo[2,1-b] [1,3]oxazol]-3′-one] was less than 25 nM.

The EC50 is the midpoint of the concentration-response curve.
